Measurements as given in US9868698B2, “(2S,4R)-5-(5′-chloro-2′-fluorobiphenyl-4-yl)-4-(ethoxyoxalylamino)-2-hydroxymethyl-2-methylpentanoic acid” (THERAVANCE BIOPHARMA R&D IP, LLC, priority 2015, dated 2018).

Assays:
[1] = IV/PO pharmacokinetic study in dogs (Assay 3); type: in vivo; details: male, beagle, plasma, dog, read-out: AUClast Mean
Protocol: (§1) Each rat or dog pharmacokinetic study began with formulation of the test compound. Appropriate masses of each test compound were added into a volume of vehicle (e.g. 5% sodium bicarbonate, 5% dextrose in water) such that the final concentration of each compound was appropriate to be dosed at 2 mL/kg. Although a homogenous suspension were acceptable for oral dosing, intravenous dosing solutions were sterile-filtered (0.2 μm) prior to dosing to ensure no particulates were administered.
In the dog study, male beagle dogs (3 per route) housed at Agilux Laboratories (Worcester, Mass.) and weighing between 7-12 kg received either a single oral gavage or a single intravenous (via indwelling catheter) dose of the dosing solution. The final dose was typically 0.1-2 mg/kg. Serial blood samples were harvested via direct venipuncture at 3 minutes, 15 minutes, 30 minutes, 1 hour, 2 hours, 4 hours, 6 hours, 8 hours, 12 hours, and 24 hours post-dose. All samples were collected manually into microtainer tubes containing sodium fluoride, potassium oxalate and paraoxon, and were processed to plasma by refrigerated centrifugation.
(§2) Plasma samples were extracted with 3 volumes of MeCN containing a suitable internal standard. Extracts were reconstituted into 3 volumes of water containing 1% formic acid, and analyzed via HPLC-coupled MS/MS. Plasma concentration-time data were analyzed using the Phoenix software (Pharsight Corp., St. Louis, Mo.) to calculate pharmacokinetic parameters.

NEP [2] = molecular target: T1, NEP (Homo sapiens, UniProt P08473); assay: In vitro enzyme inhibition assay, human NEP (Assay 1); type: biochemical; parameters: purchased R&D Systems 1182-ZN; details: read-out: human pKi (converted)
Protocol: (§3) The inhibitory activities at human and rat neprilysin (EC 3.4.24.11; NEP) were determined using in vitro assays as described below.
Recombinant human NEP was obtained commercially (R&D Systems, Minneapolis, Minn., catalog number 1182-ZN). The fluorogenic peptide substrate Mca-D-Arg-Arg-Leu-Dap-(Dnp)-OH (Medeiros et al. (1997) Braz. J. Med. Biol. Res. 30:1157-62; Anaspec, San Jose, Calif.) was used.
(§4) The assays were performed in 384-well white opaque plates at 37° C. using the fluorogenic peptide substrate at a concentration of 10 μM in Assay Buffer (50 mM HEPES, pH 7.5, 100 mM NaCl, 0.01% polyethylene glycol sorbitan monolaurate (Tween-20), 10 μM ZnSO4).
(§5) Test compounds were assayed over the range of concentrations from 10 μM to 20 pM. Test compounds were added to the enzyme and incubated for 30 minute at 37° C. prior to initiating the reaction by the addition of substrate. Reactions were terminated after 20 minutes of incubation at 37° C. by the addition of glacial acetic acid to a final concentration of 3.6% (v/v).
(§6) Plates were read on a fluorometer with excitation and emission wavelengths set to 320 nm and 405 nm, respectively. Inhibition constants were obtained by nonlinear regression of the data using the equation (GraphPad Software, Inc., San Diego, Calif.): v=v0/[1+(I/K′)] where v is the reaction rate, v0 is the uninhibited reaction rate, I is the inhibitor concentration and K′ is the apparent inhibition constant.
Target sequence in this assay (P08473 52-750 limits assumed): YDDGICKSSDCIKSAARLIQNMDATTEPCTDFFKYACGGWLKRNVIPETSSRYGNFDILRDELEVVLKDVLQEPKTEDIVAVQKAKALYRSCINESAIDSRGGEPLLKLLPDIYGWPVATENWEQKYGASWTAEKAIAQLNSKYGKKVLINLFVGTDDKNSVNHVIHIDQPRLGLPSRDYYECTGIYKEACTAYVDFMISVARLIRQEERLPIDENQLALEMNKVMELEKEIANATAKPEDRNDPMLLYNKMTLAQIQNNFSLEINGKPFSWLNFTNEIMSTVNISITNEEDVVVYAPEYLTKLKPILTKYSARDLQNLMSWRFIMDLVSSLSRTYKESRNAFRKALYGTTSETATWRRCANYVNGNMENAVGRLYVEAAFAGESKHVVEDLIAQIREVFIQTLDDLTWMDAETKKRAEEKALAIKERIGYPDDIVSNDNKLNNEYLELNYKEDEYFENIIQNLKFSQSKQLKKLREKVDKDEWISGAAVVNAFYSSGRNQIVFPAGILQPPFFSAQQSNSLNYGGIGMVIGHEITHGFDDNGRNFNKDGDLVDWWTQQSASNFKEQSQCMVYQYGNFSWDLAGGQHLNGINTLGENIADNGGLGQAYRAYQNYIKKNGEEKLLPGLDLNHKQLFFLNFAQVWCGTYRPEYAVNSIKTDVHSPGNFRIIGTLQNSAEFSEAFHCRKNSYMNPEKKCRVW

Rat NEP = molecular target: T2, Rat NEP (Rattus norvegicus, UniProt P07861); assay: In vitro enzyme inhibition assay, rat NEP (Assay 1); type: biochemical; details: NEP from rat kidneys; read-out: rat pKi (converted)
T2 construct: leaving a viscous oily precipitate containing the enriched membrane fraction; from tissue; host or cells: kidneys of adult Sprague Dawley rats (Triton X-114 enriched membrane fraction)
T2 sequence (P07861 1-750): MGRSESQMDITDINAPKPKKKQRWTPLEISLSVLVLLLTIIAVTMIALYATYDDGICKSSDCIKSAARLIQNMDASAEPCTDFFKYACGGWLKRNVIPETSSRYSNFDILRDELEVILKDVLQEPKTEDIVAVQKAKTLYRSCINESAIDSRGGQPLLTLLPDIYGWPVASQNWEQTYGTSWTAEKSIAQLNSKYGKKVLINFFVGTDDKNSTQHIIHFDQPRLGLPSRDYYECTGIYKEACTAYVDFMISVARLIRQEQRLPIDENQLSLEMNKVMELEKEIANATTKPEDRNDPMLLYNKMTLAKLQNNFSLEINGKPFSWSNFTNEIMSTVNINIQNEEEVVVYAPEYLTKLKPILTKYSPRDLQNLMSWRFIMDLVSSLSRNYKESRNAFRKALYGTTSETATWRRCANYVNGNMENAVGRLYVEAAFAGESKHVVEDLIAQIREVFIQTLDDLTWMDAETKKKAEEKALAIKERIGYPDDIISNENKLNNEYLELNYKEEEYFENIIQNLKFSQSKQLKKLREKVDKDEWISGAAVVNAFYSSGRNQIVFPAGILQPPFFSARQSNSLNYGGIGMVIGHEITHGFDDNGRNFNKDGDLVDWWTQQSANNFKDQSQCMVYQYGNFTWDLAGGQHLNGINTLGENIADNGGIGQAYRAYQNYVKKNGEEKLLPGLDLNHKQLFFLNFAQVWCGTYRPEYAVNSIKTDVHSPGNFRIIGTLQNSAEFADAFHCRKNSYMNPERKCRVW
Protocol: as §3
Rat NEP was prepared from the kidneys of adult Sprague Dawley rats. Whole kidneys were washed in cold phosphate buffered saline (PBS) and brought up in ice-cold lysis buffer (1% Triton X-114, 150 mM NaCl, 50 mM tris(hydroxymethyl) aminomethane (Tris) pH 7.5; Bordier (1981) J. Biol. Chem. 256: 1604-1607) in a ratio of 5 mL of buffer for every gram of kidney. Samples were homogenized on ice using a polytron hand held tissue grinder. Homogenates were centrifuged at 1000×g in a swinging bucket rotor for 5 minutes at 3° C. The pellet was resuspended in 20 mL of ice cold lysis buffer and incubated on ice for 30 minutes. Samples (15-20 mL) were then layered onto 25 mL of ice-cold cushion buffer (6% w/v sucrose, 50 mM pH 7.5 Tris, 150 mM NaCl, 0.06%, Triton X-114), heated to 37° C. for 3-5 minutes and centrifuged at 1000×g in a swinging bucket rotor at room temperature for 3 minutes. The two upper layers were aspirated off, leaving a viscous oily precipitate containing the enriched membrane fraction. Glycerol was added to a concentration of 50% and samples were stored at −20° C. Protein concentrations were quantitated using a BCA detection system with bovine serum albumin (BSA) as a standard.
as §4, §5, §6

NEP [3] = molecular target: T1, NEP; details: reported in U.S. Patent Application Publication No. 2013/0109639; cited from earlier work
Target sequence in this assay (P08473 whole entry): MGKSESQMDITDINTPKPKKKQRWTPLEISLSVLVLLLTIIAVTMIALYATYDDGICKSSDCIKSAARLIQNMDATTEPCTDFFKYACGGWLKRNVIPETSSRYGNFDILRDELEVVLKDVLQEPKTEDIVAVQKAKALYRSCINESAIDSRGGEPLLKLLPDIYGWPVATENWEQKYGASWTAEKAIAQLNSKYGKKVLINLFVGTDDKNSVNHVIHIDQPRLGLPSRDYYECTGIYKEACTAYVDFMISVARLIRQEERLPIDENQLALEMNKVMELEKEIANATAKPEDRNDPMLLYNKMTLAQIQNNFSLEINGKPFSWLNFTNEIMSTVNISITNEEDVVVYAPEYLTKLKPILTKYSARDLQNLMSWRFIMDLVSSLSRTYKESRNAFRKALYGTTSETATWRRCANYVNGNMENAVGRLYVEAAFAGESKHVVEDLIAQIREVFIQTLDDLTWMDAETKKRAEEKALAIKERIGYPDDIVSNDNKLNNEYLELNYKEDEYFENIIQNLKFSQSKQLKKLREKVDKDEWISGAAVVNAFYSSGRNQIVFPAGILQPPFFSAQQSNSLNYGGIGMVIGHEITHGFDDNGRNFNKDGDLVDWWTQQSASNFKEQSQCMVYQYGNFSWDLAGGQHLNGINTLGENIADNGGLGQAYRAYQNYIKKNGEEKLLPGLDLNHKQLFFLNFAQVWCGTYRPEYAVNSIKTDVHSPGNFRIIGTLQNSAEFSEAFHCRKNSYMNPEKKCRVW

[4] = IV/PO pharmacokinetic study in rats (Assay 3); type: in vivo; details: male, Sprague-Dawley, plasma; rat, IV; analyte = compound dosed (active metabolite); read-out: AUClast Mean
Protocol: as §1
In the rat study, pre-cannulated male Sprague-Dawley rats (3 per route) between 8 and 10 weeks of age were obtained from Harlan Laboratories (Indianapolis, Ind.). Rats received either a single oral gavage or a single intravenous (via lateral tail vein) dose of the dosing solution. The final dose was typically 0.5-3 mg/kg. Serial blood samples were harvested via the cannula implanted in the jugular vein at 3 minutes, 15 minutes, 30 minutes, 1 hour, 2 hours, 4 hours, 6 hours, and 24 hours post-dose. Sampling was performed either manually or using automated blood samplers. Samples were collected into microtainer tubes containing sodium fluoride, potassium oxalate and paraoxon, and were processed to plasma by refrigerated centrifugation.
as §2

[5] = Renal excretion in male beagle dogs (Assay 4); type: in vivo; details: dog, IV 1.0 mg/kg
Protocol: An important factor for insuring appropriate long term drug dosing and correct steady-state drug concentrations in patients is drug clearance. In general, decreased drug clearance results in higher drug concentrations and greater drug effects.
Male beagle dogs (N=3), having body weights of 9.58-10.42 kg, received an IV dose of 1.0 mg/kg of Compound 1. Compound 1 was formulated in 5% NaHCO3 in D5W. The dogs were fasted overnight and pretreated with pentagastrin (60 μg/mL, 0.1 mL/kg, IM) approximately 30 minutes prior to dose administration to stimulate gastric secretion. Food was returned approximately 4 hours postdose. Urine samples were collected surrounded by cold ice packs during the collection period. After 24 hours, the sample weight was recorded, the sample was thoroughly mixed, and aliquots were obtained and frozen (−80° C.) prior to bioanalysis.
Dog urine concentrations of Compound 1 were determined by LC/MS/MS. Urine study samples (diluted in plasma) were vortexed and 50 μL was placed in a 96-well plate. The samples were extracted with acetonitrile with internal standard chrysin. The extract was centrifuged and supernatant was transferred to a new 96-well plate and diluted 1 part sampe in 4 parts water with 0.2% formic acid. Samples (12 μL) were injected on a Waters Acquity UPLC BEH C18 (50×2.1 mm, 1.7 μm) column with a flow rate of 0.9 mL/min. […]

[6] = Exposure of crystals to ambient conditions; type: physicochemical

Structure (SMILES)	AUC(0-t) ([1]; IV, analyte = compound dosed (active metabolite)) [ng·h/mL]	Ki (NEP [2]) [pM]	Ki (Rat NEP) [pM]	pKi at NEP (NEP [3])	AUC(0-t) [4] [ng·h/mL]	AUC(0-t) ([1]; PO, analyte = compound dosed (prodrug)) [ng·h/mL]	Amount of Compound 1 Excreted in Urine over Collection Period (0-24 hrs) Mean [5] [µg]	Urinary Excretion (approximate % of administred dose excreted in urine) Mean ([5]; 0-24 hrs, 1 mg/kg) [%]	behaviour of crystals at ambient conditions (in words) [6]
C[C@@](CO)(C[C@@H](Cc1ccc(-c2cc(Cl)ccc2F)cc1)NC(=O)C(=O)O)C(=O)O [Comparison Compound C2, (2S,4R)-5-(5′-Chloro-2′-fluorobiphenyl-4-yl)-2-hydroxymethyl-2-methyl-4-(oxalylamino)pentanoic Acid]	1970	631	316	≥ 9	16000	–	–	–	–
CCOC(=O)C(=O)N[C@H](Cc1ccc(-c2cc(Cl)ccc2F)cc1)C[C@@](C)(CO)C(=O)O [Compound 1, (2S,4R)-5-(5′-Chloro-2′-fluorobiphenyl-4-yl)-4-(ethoxyoxalylamino)-2-hydroxymethyl-2-methylpentanoic Acid]	–	794	794	–	–	3.7	28.9	0.284	–
CCOC(=O)C(=O)N[C@H](Cc1ccc(-c2cc(Cl)ccc2F)cc1)C[C@@](C)(CO)C(=O)O [Compound 1″, L-Arginine (2S,4R)-5-(5′-Chloro-2′-fluoro-[1,1′-bipheny]-4-yl)-4-(2-ethoxy-2-oxoacetamido)-2-(hydroxymethyl)-2-methylpentanoate]	–	–	–	–	–	–	–	–	slow deliquescence
